# Test results taken from patent US20020028847A1, “Method for treatment of fibrosis related diseases by the administration of prostacyclin derivatives” (Fibrogen, Inc., priority 1998, published 2002).
# Like-named read-outs stand apart in the source and are kept apart here.
# Columns and labels:
# metastasis = settings: several different animal models; cited from earlier work
# scleroderma fibroblasts = experiment: ELISA for collagen (N propeptide of Type I collagen α chain) in cultured skin fibroblasts; format: cell-based, human
# Description: 4 mm punch skin biopsies were taken from the forearms of healthy volunteers and from patients with active diffuse scleroderma. Fibroblasts from these biopsies were subcultured to passage 6 in Dulbecco's modified eagle medium with 10% fetal calf serum and Pen Strep solution and grown to confluence. Twenty-four hours before assay, the fibroblasts were switched to serum free media with exchange of media every eight (8) hours. Upon switching to serum free medium (L-ascorbic acid phosphate magnesium salt n-hydrate) (C6H6O9P) 3/2 Mg was added at a final concentration of 30 μg/ml. The supernatant fluid from the above described culture was diluted 1/100 in 0.1 M NaHCO3 and 100 μl of said diluted culture was added to each well of a 96 well maxisorp plate. The plate was then left at room temperature for two hours on a plate shaker. The plate was then washed once in PBS. 200 μl of 2% BSA in PBS was then added and the plate was left for two hours to block non-specific binding. The plate was then washed four times in PBS and first layer antibody, anti-N-procollagen I rabbit polyclonal, diluted 1/2000 in 1% BSA PBS, was added at 100 μl/well. The plate was left for two (2) hours at room temperature and then washed four times in PBS. A second layer antibody, HRP labeled goat anti-rabbit IgG 1/2000, was then added and left for two hours. […] The plate was then read on a multiwell analyser.
# Raynaud's phenomena = settings: patients; cited from earlier work
# [1] = test system: platelet thrombus formation; settings: animals with thrombin induced thrombosis; cited from earlier work
# CTGF RNA = experiment: Northern blot for CTGF RNA; format: cell-based; settings: cells treated with TGF-β and iloprost
# Protocol: Cultured cells are grown to confluence on 100 mm plates. The cells were then serum starved with ascorbate for 24 hours, after which conditioned medium with TGF-β and Iloprost was added. The cells were then lysed with TRIzol (Gibco catalog no. 15596-018) wherein 1 ml per plate of the TRIzol was added and the plate was left at room temperature for ten minutes. 200 μl of chloroform was then added and the cells were vortexed for 20 seconds. The cells were then left alone for 5 minutes at room temperature and then centrifuged in a microcentrifuge tube for 10 minutes at maximum speed at 4° C. The upper layer was then removed (layer containing RNA) and then mixed with an equal volume of isopropanol. The mixture was then centrifuged for 10 minutes to form a pellet of RNA. 0.5 ml of 70% ethanol in RNAse free purified water was then added to the pellet. The ethanol was then tipped off and the pellet was left to dry. After five minutes, the pellet was resuspended in 20 μl of RNAse free water and kept on ice. To assay the RNA using a photospectometer, a sample of the RNA was diluted 1/500 (volume 1 ml) and read at OD 260 nm (to measure RNA) and 280 nm (to measure protein). RNA concentration was calculated in terms of μg/μl=(OD260×40×dilution)/1000. […]
# CTGF = CTGF ELISA on cultured skin fibroblasts; format: cell-based, human; settings: scleroderma fibroblasts
# Description: 4 mm punch skin biopsies were taken from the forearms of healthy volunteers and from patients with active diffuse scleroderma. Fibroblasts from these biopsies were subcultured to passage 6 in Dulbecco's modified eagle medium with 10% fetal calf serum and Pen Strep solution and grown to confluence. Twenty-four hours before assay, the fibroblasts were switched to serum free media with exchange of media every eight (8) hours. Upon switching to serum free medium (L-ascorbic acid phosphate magnesium salt n-hydrate) (C6H6O9P) 3/2 Mg was added at a final concentration of 30 μg/ml. The following protocol was used for the CTGF ELISA: 1. Plate antigen on Nunc immuno plase Maxisorp surface (catalog number 442402). 2. CTGF standard curve by two fold serial dilution in 6 triplicates (see Table 1, below). 3. Add 50 μl of sample to each well. 4. Leave wells for 2 hours at room temperature. 5. Wash wells 4 times with PBSa. 6. Add first layer antibody (pAB2 rabbit anti-human CTGF (0.8 mg/ml)( 1/1280)) diluted to 625 ng/ml in blocking buffer (1% BSA/0.05% tween20/PBS). 7. Add 50 μl to each well and leave at room temperature for one hour. 8. Wash wells five times with PBS. 9. Add second layer antibody donkey anti-rabbit IgG, HRP linked whole antibody (Amersham Life Sciences, Catalog No. NA 934 diluted 1/3200 in block buffer). 10. […] Stop reaction with 50 μl per well of 1M H2SO4 and read OD at 450 nm.
# CTGF promoter = experiment: CTGF promoter/luciferase transfection assay in normal human fibroblasts; format: cell-based; settings: measured over a twenty-four hour period
# Protocol: Normal human fibroblasts were grown to 80% confluence in a 6 well plate. 1 μg of DNA (CTGF promoter/luciferase) was added with 3 μl of FuGene 6 transfection reagent (Boehringer Mannheim 1814443); wherein the FuGene 6 was added dropwise to serum free culture medium and left at room temperature for five minutes and added to 1 µg of DNA in a separate tube for fifteen minutes. The DNA/FuGene 6 solution was then added dropwise to the cell culture by spreading around each well and swirling the flasks. The cell culture was returned to an incubator and the cells were grown again to confluence, approximately 36 hours. The cells were then switched to a serum free medium with ascorbate and left overnight. The cells were then treated for 24 hours as follows: control; Iloprost 1000 pg/ml; TGF-β 20 ng/ml; and TGF-β 20 ng/ml+Iloprost 1000 pg/ml.
# After 24 hours the cells were lysed with Promega reporter lysis buffer (E 397A) at room temperature, 400 μl per […] and left for 15 minutes at room temperature. A 50 μl sample of the lysate was drawn and 100 μl of luciferase assay reagent (Promega E 148A) was added. Chemiluminensence was read using a plate reader program ARQ.1PT software micro P1.00.
# [2] = test system: renal interlobar and cortical arteries; settings: scleroderma patients, iloprost infusions; cited from earlier work
Compound,inhibition of metastasis (metastasis),excessive production of collagen (scleroderma fibroblasts),excessive production of collagen (scleroderma fibroblasts; listed as iloprost),safety and efficacy in Raynaud's phenomena (Raynaud's phenomena),platelet thrombus formation [1],TGF-β induced synthesis of CTGF RNA (CTGF RNA),TGF-β induced synthesis of CTGF RNA (CTGF RNA; listed as iloprost),CTGF production (CTGF),CTGF production (CTGF; listed as iloprost),time of most pronounced inhibitory effect on CTGF production (CTGF promoter),resistive index of the renal interlobar and cortical arteries [2]
CCC#CC[C@H](C)[C@H](O)C#C[C@@H]1[C@H]2C/C(=C/COCC(=O)O)C[C@H]2C[C@H]1O [cicaprost],effectively inhibit metastasis,–,–,–,–,–,–,–,–,–,–
CCC#CC[C@H](C)[C@H](O)C#C[C@@H]1[C@H]2C/C(=C/COCCCC(=O)O)C[C@H]2C[C@H]1O [eptaloprost],antimetastically acting agents,–,–,–,–,–,–,–,–,–,–
"CC#CCC(C)[C@H](O)/C=C/[C@@H]1[C@H]2C/C(=C/CCCC(=O)O)C[C@H]2C[C@H]1O (stereo partly drawn) [Iloprost, 5-(E)-(1S,5S,6R)-7-hydroxy-6[(E)-(3S,4RS)-3-hydroxy-4-methyl-1-octen-6-inyl]bicyclo[3.3.0]octen-3-ylidene pentanoic acid]",–,inhibited,capable of inhibiting collagen production,safe and effective therapy,prevent platelet thrombus formation,inhibit CTGF production,blocked,decrease in CTGF production,capable of inhibiting collagen production and CTGF production,most pronounced between hour 1 and hour 3,reduction of the resistive index
